Source: ChEMBL document CHEMBL3352258 (J Med Chem, 2014)
pEC50, pIC50: −log10 of the molar value. Converted amounts (≈) assume the structure as drawn. Each block holds one molecule with its values, some of them ahead of it. The source made the active and inactive calls. The rule behind the calls is not given here.

What was measured:
[1] = tested on: Cynomolgus monkey; assay: Toxicity in cynomolgus monkey at plasma concentration 20 uM by electrophysiology study; format: organism-based, Macaca fascicularis; conditions: in vivo
[2] = tested on: Mus musculus; assay: Antidiabetic activity in C57BL/6J mouse assessed as reduction in glucose AUC at 0.1 mg/kg, po by oral glucose tolerance test relative to vehicle-treated control; format: functional; parameters: scale not given: the % may be the effect or the level left
[3] = tested on: Mus musculus; assay: Antidiabetic activity in C57BL/6J mouse assessed as reduction in glucose AUC at 0.03 mg/kg, po by oral glucose tolerance test relative to vehicle-treated control; format: functional; parameters: scale not given: the % may be the effect or the level left
[4] = tested on: Mus musculus; assay: Antidiabetic activity in db/db mouse assessed as reduction in blood glucose level at 3 mg/kg, po qd administered 1 hr prior glucose challenge measured after 21 days by oral glucose tolerance test; format: functional; parameters: scale not given: the % may be the effect or the level left
[5] = Oral bioavailability in Sprague-Dawley rat at 5 mg/kg administered as HMPC SDD formulation; format: ADME, organism-based; conditions: in vivo
[6] = tested on: Mus musculus; assay: Antidiabetic activity in db/db mouse assessed as increase in fasting plasma insulin level at 0.01 to 0.3 mg/kg, po qd administered 1 hr prior glucose challenge measured after 21 days; format: functional, organism-based
[7] = tested on: Rattus norvegicus; assay: AUC (total) in Sprague-Dawley rat at 5 mg/kg, po; format: ADME, organism-based, Plasma; parameters: dose 5 mg/kg, route oral; conditions: in vivo
[8] = tested on: Homo sapiens; assay: Antidiabetic activity in human assessed as increase in total GLP1 AUC at 10 mg, po measured on day 1; format: functional
[9] = molecular target: T1, Glucose-dependent insulinotropic receptor (Homo sapiens, UniProt Q8TDV5); assay: Agonist activity at human GPR119
T1 sequence (Q8TDV5 whole entry): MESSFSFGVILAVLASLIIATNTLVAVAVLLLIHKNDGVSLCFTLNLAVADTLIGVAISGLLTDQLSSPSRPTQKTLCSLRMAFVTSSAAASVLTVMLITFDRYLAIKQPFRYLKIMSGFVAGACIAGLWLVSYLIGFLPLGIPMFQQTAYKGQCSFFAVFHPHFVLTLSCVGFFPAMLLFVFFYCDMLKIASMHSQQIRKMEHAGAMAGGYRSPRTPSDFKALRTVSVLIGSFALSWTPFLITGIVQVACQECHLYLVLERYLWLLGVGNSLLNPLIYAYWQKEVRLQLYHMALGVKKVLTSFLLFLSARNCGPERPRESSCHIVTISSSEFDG

[10] = molecular target: T2, Nuclear receptor subfamily 1 group I member 2 (Homo sapiens, UniProt O75469); assay: Activation of PXR (unknown origin); format: ADME
T2 sequence (O75469 whole entry): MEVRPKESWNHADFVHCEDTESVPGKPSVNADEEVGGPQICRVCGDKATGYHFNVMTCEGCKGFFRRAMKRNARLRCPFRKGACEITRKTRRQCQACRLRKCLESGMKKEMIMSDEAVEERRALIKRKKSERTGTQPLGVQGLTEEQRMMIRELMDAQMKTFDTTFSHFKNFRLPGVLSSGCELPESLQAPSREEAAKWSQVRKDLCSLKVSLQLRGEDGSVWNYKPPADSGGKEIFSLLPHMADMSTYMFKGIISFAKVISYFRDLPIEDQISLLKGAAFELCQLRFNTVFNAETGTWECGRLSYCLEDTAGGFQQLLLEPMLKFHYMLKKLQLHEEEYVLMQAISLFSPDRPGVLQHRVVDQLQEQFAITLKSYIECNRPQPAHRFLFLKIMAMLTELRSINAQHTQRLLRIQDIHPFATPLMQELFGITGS

[11] = tested on: Mus musculus; assay: Antidiabetic activity in C57BL/6J mouse assessed as reduction in glucose AUC at 1 mg/kg, po by oral glucose tolerance test relative to vehicle-treated control; format: functional; parameters: scale not given: the % may be the effect or the level left
[12] = tested on: Mus musculus; assay: Antidiabetic activity in db/db mouse assessed as reduction in blood glucose level at 30 mg/kg, po qd administered 1 hr prior glucose challenge measured after 21 days by oral glucose tolerance test; format: functional; parameters: scale not given: the % may be the effect or the level left
[13] = tested on: Rattus norvegicus; assay: Tmax in Sprague-Dawley rat at 5 mg/kg, po; format: ADME, organism-based; parameters: dose 5 mg/kg, route oral; conditions: in vivo
[14] = Solubility of the compound in 50% PEG400/ 50% PBS solution; format: physicochemical
[15] = tested on: Mus musculus; assay: Antidiabetic activity in C57BL/6J mouse assessed as reduction in glucose AUC at 0.3 mg/kg, po by oral glucose tolerance test relative to vehicle-treated control; format: functional; parameters: scale not given: the % may be the effect or the level left
[16] = tested on: Homo sapiens; assay: Antidiabetic activity in po dosed human assessed as increase in 24 hrs GLP1 AUC measured on day 1; format: functional, organism-based
[17] = tested on: HepG2; assay: Cytotoxicity against human HepG2 cells at 40 uM; format: cell-based; conditions: hepg2, 40 µM
[18] = Solubility of the compound at pH 6.5; format: physicochemical; conditions: buffer
[19] = tested on: Mus musculus; assay: Antidiabetic activity in db/db mouse assessed as reduction in blood glucose level at 0.01 mg/kg, po qd administered 1 hr prior glucose challenge measured after 21 days by oral glucose tolerance test; format: functional; parameters: scale not given: the % may be the effect or the level left
[20] = Terminal half life in human at 0.1 to 120 mg, po; format: ADME, organism-based; conditions: in vivo, read-out: beta t1/2 (converted)
[21] = Oral bioavailability in Sprague-Dawley rat at 5 mg/kg administered as suspension; format: ADME, organism-based; conditions: in vivo
[22] = Clearance in Sprague-Dawley rat at 1 mg/kg, iv; format: ADME, organism-based; parameters: dose 1 mg/kg, route intravenous; conditions: in vivo
[23] = Half life in human liver microsomes; format: ADME
[24] = tested on: Mus musculus; assay: Antidiabetic activity in db/db mouse assessed as reduction in blood glucose level at 0.03 mg/kg, po qd administered 1 hr prior glucose challenge measured after 21 days by oral glucose tolerance test; format: functional; parameters: scale not given: the % may be the effect or the level left
[25] = Inhibition of cytochrome P450 (unknown origin); format: ADME, Homo sapiens
[26] = tested on: Rattus norvegicus; assay: Stimulation of glucose-induced GLP-1 release in cannulated Sprague-Dawley rat at 0.3 mg/kg, po administered 1 hr prior glucose challenge in presence of DPP4 inhibitor relative to vehicle-treated control; format: functional, organism-based; parameters: dose 0.3 mg/kg
[27] = Volume of distribution at steady state in Sprague-Dawley rat at 1 mg/kg, iv; format: ADME, organism-based; parameters: dose 1 mg/kg, route intravenous; conditions: in vivo, read-out: Vdss
[28] = Half life in mouse; format: ADME, organism-based; conditions: in vivo
[29] = organism: Oryctolagus cuniculus; assay: Toxicity in rabbit at plasma concentration 20 uM by electrophysiology study; format: organism-based; conditions: in vivo
[30] = tested on: Rattus norvegicus; assay: Stimulation of glucose-induced GLP-1 release in cannulated Sprague-Dawley rat at 0.3 mg/kg, po administered 1 hr prior glucose challenge relative to vehicle-treated control; format: functional, organism-based; parameters: dose 0.3 mg/kg
[31] = tested on: Salmonella typhimurium; assay: Genotoxicity in Salmonella typhimurium; format: toxicity, organism-based; conditions: salmonella enterica subsp. enterica serovar typhimurium
[32] = tested on: Homo sapiens; assay: Antidiabetic activity in human assessed as increase in total GLP1 AUC at 0.6 mg, po measured on day 1; format: functional
[33] = Protein binding in human plasma; format: ADME, cell-free; conditions: read-out: PPB (converted)
[34] = tested on: Rattus norvegicus; assay: Cmax in Sprague-Dawley rat at 5 mg/kg, po; format: ADME, organism-based; parameters: dose 5 mg/kg, route oral; conditions: in vivo
[35] = tested on: Rattus norvegicus; assay: Half life in Sprague-Dawley rat at 5 mg/kg, po; format: ADME, organism-based; parameters: dose 5 mg/kg, route oral; conditions: in vivo
[36] = tested on: Homo sapiens; assay: Antidiabetic activity in human assessed as reduction in 24 hrs glucose AUC at 0.1 to 120 mg, po measured on day 1; format: functional, organism-based
[37] = tested on: Homo sapiens; assay: Toxicity in human at 0.1 to 120 mg, po; format: organism-based; conditions: in vivo
[38] = tested on: Mus musculus; assay: Antidiabetic activity in db/db mouse assessed as reduction in glucose AUC at 3 mg/kg, po qd administered 1 hr prior glucose challenge measured after 21 days by oral glucose tolerance test relative to control; format: functional; parameters: scale not given: the % may be the effect or the level left
[39] = molecular target: T3, Glucose-dependent insulinotropic receptor (Homo sapiens) (UniProt Q8TDV5); assay: Intrinsic activity at human GPR119 relative to control
T3 sequence (whole entry): T1 sequence (Q8TDV5 whole entry)

[40] = tested on: Mus musculus; assay: Antidiabetic activity in db/db mouse assessed as reduction in HbA1C level at 0.3 mg/kg, po qd administered 1 hr prior glucose challenge measured after 21 days by oral glucose tolerance test relative to control; format: functional; parameters: scale not given: the % may be the effect or the level left
[41] = tested on: Mus musculus; assay: Antidiabetic activity in db/db mouse assessed as reduction in blood glucose level at 0.3 mg/kg, po qd administered 1 hr prior glucose challenge measured after 21 days by oral glucose tolerance test; format: functional; parameters: scale not given: the % may be the effect or the level left
[42] = AUC in C57BL/6 mouse at 30 mg/kg, po; format: ADME, organism-based; parameters: dose 30 mg/kg, route oral; conditions: plasma
[43] = molecular target: hERG (KCNH2) (Homo sapiens, UniProt Q12809); assay: Inhibition of human ERG at 10 uM by patch clamp assay
Chain of hERG (KCNH2) (Q12809 whole entry): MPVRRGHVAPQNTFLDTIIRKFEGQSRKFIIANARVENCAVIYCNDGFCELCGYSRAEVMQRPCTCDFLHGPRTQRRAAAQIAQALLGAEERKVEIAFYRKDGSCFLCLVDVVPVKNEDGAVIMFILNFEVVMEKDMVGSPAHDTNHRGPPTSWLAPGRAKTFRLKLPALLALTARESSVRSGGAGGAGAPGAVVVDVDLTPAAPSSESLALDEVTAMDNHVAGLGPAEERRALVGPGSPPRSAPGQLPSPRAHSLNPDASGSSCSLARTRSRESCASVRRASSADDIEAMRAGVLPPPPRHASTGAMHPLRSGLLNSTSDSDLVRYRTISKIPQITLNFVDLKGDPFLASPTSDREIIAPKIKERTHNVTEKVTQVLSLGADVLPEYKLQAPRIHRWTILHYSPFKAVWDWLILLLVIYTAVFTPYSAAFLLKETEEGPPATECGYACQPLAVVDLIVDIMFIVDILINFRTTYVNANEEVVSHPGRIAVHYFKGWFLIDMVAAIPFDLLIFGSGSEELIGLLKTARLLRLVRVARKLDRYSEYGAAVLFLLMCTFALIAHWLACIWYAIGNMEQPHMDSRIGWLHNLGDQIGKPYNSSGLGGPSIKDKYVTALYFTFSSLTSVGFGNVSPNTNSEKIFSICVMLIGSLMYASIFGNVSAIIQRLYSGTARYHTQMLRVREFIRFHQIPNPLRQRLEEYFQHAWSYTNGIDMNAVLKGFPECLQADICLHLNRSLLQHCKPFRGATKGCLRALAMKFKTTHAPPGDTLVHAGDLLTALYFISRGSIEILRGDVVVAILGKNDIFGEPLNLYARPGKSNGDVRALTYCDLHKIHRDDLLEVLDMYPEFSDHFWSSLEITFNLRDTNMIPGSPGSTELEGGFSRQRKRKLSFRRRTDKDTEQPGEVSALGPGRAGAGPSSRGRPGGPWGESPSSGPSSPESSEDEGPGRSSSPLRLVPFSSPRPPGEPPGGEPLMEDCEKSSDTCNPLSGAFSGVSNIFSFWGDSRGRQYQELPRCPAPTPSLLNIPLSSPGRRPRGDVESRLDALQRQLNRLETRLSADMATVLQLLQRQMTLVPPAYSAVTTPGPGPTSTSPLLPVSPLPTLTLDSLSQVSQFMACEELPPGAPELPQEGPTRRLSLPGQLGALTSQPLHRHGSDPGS

[44] = tested on: Mus musculus; assay: Antidiabetic activity in db/db mouse assessed as reduction in HbA1C level at 3 mg/kg, po qd administered 1 hr prior glucose challenge measured after 21 days by oral glucose tolerance test relative to control; format: functional; parameters: scale not given: the % may be the effect or the level left
[45] = Protein binding in rat plasma; format: ADME, cell-free; conditions: read-out: PPB
[46] = Cmax in C57BL/6 mouse at 30 mg/kg, po after 2 hrs; format: ADME, organism-based; parameters: dose 30 mg/kg, route oral; conditions: in vivo
[47] = tested on: Mus musculus; assay: Antidiabetic activity in db/db mouse assessed as reduction in glucose AUC at 30 mg/kg, po qd administered 1 hr prior glucose challenge measured after 21 days by oral glucose tolerance test relative to control; format: functional; parameters: scale not given: the % may be the effect or the level left
[48] = Permeability of the compound across human Caco2 cells; format: ADME, cell-based; conditions: Caco-2, read-out: permeability
[49] = tested on: Mus musculus; assay: Antidiabetic activity in db/db mouse assessed as HbA1C level at 30 mg/kg, po qd administered 1 hr prior glucose challenge measured after 21 days by oral glucose tolerance test (reference value: 2.8%); format: functional
[50] = Solubility of the compound at pH 1; format: physicochemical; conditions: buffer
[51] = Permeability of the compound by PAMPA assay; format: ADME; conditions: read-out: permeability
[52] = Terminal half life in C57BL/6 mouse at 30 mg/kg, po; format: ADME, organism-based; parameters: dose 30 mg/kg, route oral; conditions: in vivo, read-out: beta t1/2 (converted)
[53] = tested on: Mus musculus; assay: Antidiabetic activity in db/db mouse assessed as HbA1C level at 300 mg/kg, po qd administered 1 hr prior glucose challenge measured after 21 days by oral glucose tolerance test (reference value: 2.8%); format: functional
[54] = tested on: Mus musculus; assay: Antidiabetic activity in db/db mouse assessed as reduction in glucose AUC at 300 mg/kg, po qd administered 1 hr prior glucose challenge measured after 21 days by oral glucose tolerance test relative to control; format: functional; parameters: scale not given: the % may be the effect or the level left

bioavailability [5]: 87%
AUC [7]: 95 µM·h
pEC50 [9]: 7.85
pEC50 [10]: < 4.30
Tmax [13]: 4 h
solubility [14]: 41 µg/mL (≈ 79.9 µM)
solubility [18]: < 1 µg/mL
half-life [20]: 36 h
bioavailability [21]: 33%
clearance [22]: 1.5 mL/min/kg
half-life [23]: 1.4 h
pIC50 [25]: < 4.40
Vd [27]: 2.2 L/kg
half-life [28]: 0.25 h
fraction unbound [33]: 0.005
Cmax [34]: 2.7 µM
t1/2 [35]: 0.367 h
Structure (SMILES): CS(=O)(=O)c1ccc(-n2cc(Cl)c(OC3CCN(c4ncc(Cl)cn4)CC3)cc2=O)c(F)c1 [BMS-903452]
Activity [1]: Non-toxic
Activity [2]: 37%
Activity [3]: 14%
Activity [4]: 13%
Activity [6]: Active
Activity [8]: 50%
Activity [11]: 40%
Activity [12]: 38%
Activity [15]: 39%
Activity [16]: Dose-dependent effect
Activity [17]: Non-toxic
Activity [19]: 18%
Activity [24]: 36%
Activity [26]: Active
Activity [29]: Non-toxic
Activity [30]: Active
Activity [31]: Non-toxic
Activity [32]: 20%
Activity [36]: inactive
Activity [37]: Non-toxic

Intrinsic activity [39]: 1
pEC50 [9]: 7.74
pEC50 [10]: < 4.30
AUC [42]: 245 µM·h
fraction unbound [45]: 0.01
Cmax [46]: 38.6 µM
pIC50 [25]: < 4.40
Papp [48]: 22 ×10⁻⁶ cm/s
solubility [50]: 630 µg/mL (≈ 1290 µM)
Papp [51]: 32 ×10⁻⁶ cm/s
half-life [52]: 2.4 h
Structure (SMILES): CCCc1cnc(N2CCC(Oc3ccn(-c4ccc(S(C)(=O)=O)cc4F)c(=O)c3)CC2)nc1
Activity [38]: 32%
Activity [40]: 0.6%
Activity [41]: 16%
Activity [17]: Non-toxic
inhibition at 10 µM [43]: 47%
Activity [44]: 0.4%
Activity [47]: 38%
Activity [49]: 1.4%

Structure (SMILES): CN(C)C(=N)NC(=N)N [METFORMIN]
Activity [53]: 1.4%
Activity [54]: 83%
